Results: paper PMC7366380, “Discovery of a Potent and Selective Covalent Inhibitor and Activity-Based Probe for the Deubiquitylating Enzyme UCHL1, with Antifibrotic Activity” (Journal of the American Chemical Society, 2020)

How the values were obtained:
USP25 = molecular target: T1, USP25 (Homo sapiens, UniProt Q9UHP3); assay: Biochemical DUB selectivity profiling assay: USP25; details: Ub-Lys-TAMRA 50 nM, buffer B; read-out: Biochemical IC50 range, USP25
T1 sequence (Q9UHP3 1-1055): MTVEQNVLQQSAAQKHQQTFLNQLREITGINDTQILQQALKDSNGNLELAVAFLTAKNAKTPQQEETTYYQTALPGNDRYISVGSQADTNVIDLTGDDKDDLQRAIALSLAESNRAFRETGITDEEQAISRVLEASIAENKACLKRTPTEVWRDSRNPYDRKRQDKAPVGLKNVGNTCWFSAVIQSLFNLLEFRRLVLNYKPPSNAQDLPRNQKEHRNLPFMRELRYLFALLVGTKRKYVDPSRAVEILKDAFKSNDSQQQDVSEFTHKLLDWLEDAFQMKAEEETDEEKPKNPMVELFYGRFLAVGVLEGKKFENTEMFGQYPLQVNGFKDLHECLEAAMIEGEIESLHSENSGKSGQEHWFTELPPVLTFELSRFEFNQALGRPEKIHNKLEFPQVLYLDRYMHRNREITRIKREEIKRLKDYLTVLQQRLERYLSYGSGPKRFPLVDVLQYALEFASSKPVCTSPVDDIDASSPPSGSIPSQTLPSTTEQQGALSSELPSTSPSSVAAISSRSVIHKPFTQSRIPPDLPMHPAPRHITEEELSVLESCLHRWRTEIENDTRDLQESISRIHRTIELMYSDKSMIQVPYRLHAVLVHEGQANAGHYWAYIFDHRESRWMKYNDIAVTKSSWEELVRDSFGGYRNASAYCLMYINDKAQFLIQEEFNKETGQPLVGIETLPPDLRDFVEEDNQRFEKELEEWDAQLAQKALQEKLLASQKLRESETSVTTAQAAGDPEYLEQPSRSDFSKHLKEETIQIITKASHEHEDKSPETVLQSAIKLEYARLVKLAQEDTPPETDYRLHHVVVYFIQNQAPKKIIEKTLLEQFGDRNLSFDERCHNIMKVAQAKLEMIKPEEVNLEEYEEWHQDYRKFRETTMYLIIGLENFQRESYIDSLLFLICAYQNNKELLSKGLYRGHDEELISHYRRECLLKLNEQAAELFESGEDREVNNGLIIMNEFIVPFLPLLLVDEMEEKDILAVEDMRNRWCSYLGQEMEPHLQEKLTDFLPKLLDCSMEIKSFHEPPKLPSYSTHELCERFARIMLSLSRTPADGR
Protocol: (§1) DUB Assay Substrate Substrate
(§2) Buffer Concentration (nM) […]
(§3) Sepharose® 4B resin (GE Healthcare).
(§4) 10 kDa molecular weight cut-off (MWCO)).
(§5) Fractions containing protein
(§6) Protein concentration was […]
(§7) reaction volume of 21 μL. […]
(§8) compound (final concentration 5 nM).
(§9) IC50 values were determined
(§10) Biochemical DUB selectivity profiling assays […]
(§11) in 40 µL total reaction volume.

USP35 = molecular target: T2, USP35 (Homo sapiens, UniProt Q9P2H5); assay: Biochemical DUB selectivity profiling assay: USP35; details: Ub-Lys-TAMRA 50 nM, buffer B; read-out: Biochemical IC50 range, USP35
T2 sequence (Q9P2H5 1-1018): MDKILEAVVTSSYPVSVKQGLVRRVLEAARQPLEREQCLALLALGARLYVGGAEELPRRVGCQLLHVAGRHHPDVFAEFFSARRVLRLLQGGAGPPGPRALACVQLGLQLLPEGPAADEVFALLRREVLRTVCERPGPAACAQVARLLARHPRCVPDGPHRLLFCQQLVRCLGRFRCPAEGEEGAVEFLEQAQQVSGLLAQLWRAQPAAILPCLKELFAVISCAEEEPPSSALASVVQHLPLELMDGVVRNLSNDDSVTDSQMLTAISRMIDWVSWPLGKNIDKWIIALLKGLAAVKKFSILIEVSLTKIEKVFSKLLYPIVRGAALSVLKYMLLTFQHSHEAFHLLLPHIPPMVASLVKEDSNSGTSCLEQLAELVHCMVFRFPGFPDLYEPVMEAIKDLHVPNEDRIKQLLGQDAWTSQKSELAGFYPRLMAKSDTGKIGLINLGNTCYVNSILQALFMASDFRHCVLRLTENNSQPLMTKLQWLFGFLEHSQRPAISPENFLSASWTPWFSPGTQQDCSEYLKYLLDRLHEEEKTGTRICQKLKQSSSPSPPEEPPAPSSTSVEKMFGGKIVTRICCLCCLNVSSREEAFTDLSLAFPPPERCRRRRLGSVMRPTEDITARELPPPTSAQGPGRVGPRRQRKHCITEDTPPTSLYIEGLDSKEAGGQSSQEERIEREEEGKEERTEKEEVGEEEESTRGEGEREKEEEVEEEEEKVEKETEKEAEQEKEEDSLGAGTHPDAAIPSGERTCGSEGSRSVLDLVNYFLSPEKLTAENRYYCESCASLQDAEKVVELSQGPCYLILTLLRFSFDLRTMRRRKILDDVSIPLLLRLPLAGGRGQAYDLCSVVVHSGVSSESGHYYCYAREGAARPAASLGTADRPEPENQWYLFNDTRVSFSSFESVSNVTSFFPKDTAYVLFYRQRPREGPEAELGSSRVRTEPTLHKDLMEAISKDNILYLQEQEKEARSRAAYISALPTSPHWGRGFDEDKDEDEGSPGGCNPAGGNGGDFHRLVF
Protocol: as §1, §2, §3, §4, §5, §6, §7, §8, §9, §10, §11

IC50 (USP25) | IC50 (USP35) | Structure (SMILES)
> 10 µM | > 10 µM | N#CN1CCC[C@@H]1C(=O)N1CCc2c(-c3c[nH]c4ncccc34)cccc21 [Compound 3]
> 10 µM | > 10 µM | N#CN1CCC[C@H]1C(=O)N1CCc2c(-c3c[nH]c4ncccc34)cccc21 [Compound 1]
> 10 µM | > 10 µM | C#Cc1cnc2[nH]cc(-c3cccc4c3CCN4C(=O)[C@@H]3CCCN3C#N)c2c1 [Compound 2]

Structure (SMILES) | IC50 (USP25) | IC50 (USP35)
CC(=O)O/N=C1\C(=O)N(Cc2cc(Cl)ccc2Cl)c2ccc(Cl)cc21 [LDN-57444, reference compound] | > 10 µM | > 10 µM
